For seven molecules, EC50 results are on record in patent EP1957493B1, “8-AZABICYCLO[3.2.1]OCTANE DERIVATIVES USEFUL AS MONOAMINE REUPTAKE INHIBITORS” (N.V. Organon, priority 2005, dated 2007).

SMILES strings stand for the structures. Read-outs that look alike come from different tables or passages of the source. Bounds are passed on as bounds.

Assay type in all cases: cell-based
The target in test [1] is T1, human noradrenaline transporter (hNET) (Homo sapiens, UniProt P23975).
T1 construct: expressed in transfected cells
T1 sequence (P23975 whole entry): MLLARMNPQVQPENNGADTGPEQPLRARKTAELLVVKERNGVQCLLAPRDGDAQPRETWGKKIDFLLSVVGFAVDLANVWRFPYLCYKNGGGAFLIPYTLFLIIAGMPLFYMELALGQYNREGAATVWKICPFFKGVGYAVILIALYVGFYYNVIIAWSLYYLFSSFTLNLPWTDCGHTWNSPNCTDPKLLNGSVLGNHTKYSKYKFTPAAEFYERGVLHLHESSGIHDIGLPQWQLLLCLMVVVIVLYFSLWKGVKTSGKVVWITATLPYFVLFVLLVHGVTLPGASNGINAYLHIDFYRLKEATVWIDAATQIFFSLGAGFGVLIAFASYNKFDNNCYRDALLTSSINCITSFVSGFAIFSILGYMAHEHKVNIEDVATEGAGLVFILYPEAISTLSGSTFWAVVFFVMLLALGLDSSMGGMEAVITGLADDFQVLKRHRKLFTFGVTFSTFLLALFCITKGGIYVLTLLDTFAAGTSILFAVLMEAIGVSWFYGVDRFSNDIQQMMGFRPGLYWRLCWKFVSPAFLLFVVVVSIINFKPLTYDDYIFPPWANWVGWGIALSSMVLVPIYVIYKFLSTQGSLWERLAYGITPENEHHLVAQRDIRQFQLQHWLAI
Put plainly: Assay of monoamine uptake: inhibition of noradrenaline uptake. The protocol: (§1) The in vitro test for the inhibition of dopamine and serotonin uptake was performed in Chinese Hamster Ovary cells expressing the human dopamine transporter (hDAT) or the human serotonin transporter (hSERT). The in vitro test for the inhibition of noradrenaline uptake was performed in Madin Darby Canine Kidney Cells (MDCK) expressing the human noradrenaline transporter (hNET).
(§2) Briefly, cell lines stably overexpressing the appropriate human transporter were propagated and plated according to standard cell culture techniques. Following plating, cells were left to adhere for either one or two days. A 6-point serial dilution (normally 1 E-5M to 1E-10M) of test and reference compounds was prepared, added to the washed cells and incubated for 5 minutes at ambient temperature for dopamine or serotonin transporter overexpressing and 37°C for noradrenaline overexpressing cells. Next, a final concentration of 20 nM of appropriate neurotransmitter (mixture of [^3H]-neurotransmitter and non-labelled neurtoransmitter) was added and the cells were incubated for three or five minutes at ambient temperature for dopamine or serotonin transporter overexpressing cells or ten minutes at 37°C for noradrenaline overexpressing cells. Following termination of the assay, Microscint-20 was added directly to the cells and the amount of radioactivity taken up by the cells was estimated by scintillation counting.
(§3) pEC50 values indicating inhibition of monoamine uptake were calculated using standard curve fitting techniques.

The target of test [2] is T2, human dopamine transporter (hDAT) (Homo sapiens, UniProt Q01959).
T2 construct: expressed in transfected cells
T2 sequence (Q01959 whole entry): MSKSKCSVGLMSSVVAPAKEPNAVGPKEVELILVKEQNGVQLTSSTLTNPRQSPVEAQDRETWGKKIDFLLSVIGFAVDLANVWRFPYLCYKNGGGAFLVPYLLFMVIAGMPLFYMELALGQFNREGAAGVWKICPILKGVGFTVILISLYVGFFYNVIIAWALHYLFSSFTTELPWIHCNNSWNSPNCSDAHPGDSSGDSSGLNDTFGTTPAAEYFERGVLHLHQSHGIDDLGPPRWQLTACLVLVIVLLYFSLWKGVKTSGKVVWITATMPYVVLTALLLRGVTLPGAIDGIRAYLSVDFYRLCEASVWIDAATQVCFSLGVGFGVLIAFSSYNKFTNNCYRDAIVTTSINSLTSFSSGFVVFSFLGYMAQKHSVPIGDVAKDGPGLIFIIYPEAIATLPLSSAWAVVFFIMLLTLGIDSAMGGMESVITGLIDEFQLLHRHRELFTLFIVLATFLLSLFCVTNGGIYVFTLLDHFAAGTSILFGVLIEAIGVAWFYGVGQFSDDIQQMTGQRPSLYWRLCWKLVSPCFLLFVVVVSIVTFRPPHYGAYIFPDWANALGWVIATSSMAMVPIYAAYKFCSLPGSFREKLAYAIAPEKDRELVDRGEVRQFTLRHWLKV
Put plainly: Assay of monoamine uptake: inhibition of dopamine uptake. The protocol: as §1, §2, §3

In test [3] the target is T3, human serotonin transporter (hSERT) (Homo sapiens, UniProt P31645).
T3 construct: expressed in transfected cells
T3 sequence (P31645 whole entry): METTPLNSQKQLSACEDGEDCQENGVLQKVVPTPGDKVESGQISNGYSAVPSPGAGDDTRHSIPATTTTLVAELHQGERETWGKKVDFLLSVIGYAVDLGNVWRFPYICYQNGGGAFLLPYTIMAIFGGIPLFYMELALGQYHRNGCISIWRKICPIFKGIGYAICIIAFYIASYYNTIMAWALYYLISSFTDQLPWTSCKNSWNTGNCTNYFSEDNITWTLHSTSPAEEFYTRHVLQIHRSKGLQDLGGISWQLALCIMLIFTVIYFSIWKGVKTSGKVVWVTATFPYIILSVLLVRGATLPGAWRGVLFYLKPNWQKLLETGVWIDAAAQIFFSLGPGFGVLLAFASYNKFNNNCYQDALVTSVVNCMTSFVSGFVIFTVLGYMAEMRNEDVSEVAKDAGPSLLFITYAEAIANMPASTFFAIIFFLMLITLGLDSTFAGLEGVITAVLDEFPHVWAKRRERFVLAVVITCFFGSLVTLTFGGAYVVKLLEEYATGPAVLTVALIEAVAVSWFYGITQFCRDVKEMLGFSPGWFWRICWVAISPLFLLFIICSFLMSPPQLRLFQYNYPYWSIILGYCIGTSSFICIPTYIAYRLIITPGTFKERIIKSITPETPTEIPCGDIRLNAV
Put plainly: Assay of monoamine uptake: inhibition of serotonin uptake. The protocol: as §1, §2, §3

The mark [4] stands for this setting: inhibition of noradrenaline uptake, Madin Darby Canine Kidney Cells (MDCK) expressing hNET, 20 nM neurotransmitter ([3H]-labelled and non-labelled), 37°C, read-out: hNET.
Where [5] appears, read: inhibition of dopamine uptake, Chinese Hamster Ovary cells expressing hDAT, 20 nM neurotransmitter ([3H]-labelled and non-labelled), ambient temperature, read-out: hDAT.
The mark [6] stands for this setting: inhibition of serotonin uptake, Chinese Hamster Ovary cells expressing hSERT, 20 nM neurotransmitter ([3H]-labelled and non-labelled), ambient temperature, read-out: hSERT.

As to `c1ccc(Oc2cccc(OC3CC4CCC(C3)N4)c2)cc1` (stereo not drawn) [Example 111.5, 3-endo-(3-Phenoxyphenoxy)-8-azabicyclo[3.2.1]octane], the EC50 in test [1] was 100 to 1000 nM; in test [2] it was less than 100 nM; in test [3], greater than 1000 nM.
On to `N#Cc1ccc(-c2cc(C#N)cc(OC3CC4CCC(C3)N4)c2)nc1` (stereo not drawn) [Example IX.3, exo 6-(3-(8-Azabicyclo[3.2.1]oct-3-yloxy)-5-cyanophenyl)nicotinonitrile], for which the EC50 in test [1] (setting [4]) was greater than 1000 nM; in test [2] (setting [5]), greater than 1000 nM; in test [3] (setting [6]) it was less than 100 nM.
For the molecule `N#Cc1ccc(-c2cc(C#N)cc(OC3CC4CCC(C3)N4)c2)cc1` (stereo not drawn) [VI.8, exo 5-(8-Azabicyclo[3.2.1]oct-3-yloxy)-biphenyl-3,4'-dicarbonitrile], the figures for the EC50 in test [1] (setting [4]), in test [2] (setting [5]) and in test [3] (setting [6]) were greater than 1000 nM, greater than 1000 nM and less than 100 nM, respectively.
Regarding `FC(F)(F)c1ccccc1-c1cccc(OC2CC3CCC(C2)N3)c1` (stereo not drawn) [IV.8, 3-exo-(2'-Trifluoromethylbiphenyl-3-yloxy)-8-azabicyclo[3.2.1]octane], the figures for the EC50 in test [1] (setting [4]), in test [2] (setting [5]) and in test [3] (setting [6]) were less than 100 nM, greater than 1000 nM and 100 to 1000 nM, respectively.
In the same order, the values of `Clc1cc(Oc2ccccc2)cc(O[C@@H]2C[C@H]3CC[C@@H](C2)N3)c1` [IV.19, 3-exo-(3-Chloro-5-phenoxyphenoxy)-8-azabicyclo[3.2.1]octane] are less than 100 nM, less than 100 nM and greater than 1000 nM.
Taken in the same sequence, the figures for `COc1cc(Oc2ccccc2)cc(OC2CC3CCC(C2)N3)c1F` (stereo not drawn) [IV.9, 3-exo-(2-Fluoro-3-methoxy-5-phenoxyphenoxy)-8-azabicyclo[3.2.1]octane] were less than 100 nM, less than 100 nM and greater than 1000 nM.
In the same order, the values of `FC(F)(F)c1ccc(OC2CC3CCC(C2)N3)cc1-c1ccccc1` (stereo not drawn) [VI.3, 3-exo-(6-Trifluoromethylbiphenyl-3-yloxy)-8-azabicyclo[3.2.1]octane] are greater than 1000 nM, greater than 1000 nM and 100 to 1000 nM.
